Assay results published in US11702404B2, “GLP-1R modulating compounds” (priority 2019, dated 2023).
Like-named read-outs stand apart in the source and are kept apart here.

Key:
[1] = Microsomal stability, human liver microsomes (predicted hepatic clearance); settings: predicted from in vitro microsomal stability data
GLP-1R = GLP-1R (Homo sapiens, UniProt P43220); assay: GLP-1R activation: cAMP increase in CHO cells stably expressing GLP-1R; type: cell-based
[2] = cAMP increase, CHO cells stably expressing GLP-1R, 10 point dose response, 30 minutes incubation, read-out: EC50

GLP-1R, sequence (P43220 24-463): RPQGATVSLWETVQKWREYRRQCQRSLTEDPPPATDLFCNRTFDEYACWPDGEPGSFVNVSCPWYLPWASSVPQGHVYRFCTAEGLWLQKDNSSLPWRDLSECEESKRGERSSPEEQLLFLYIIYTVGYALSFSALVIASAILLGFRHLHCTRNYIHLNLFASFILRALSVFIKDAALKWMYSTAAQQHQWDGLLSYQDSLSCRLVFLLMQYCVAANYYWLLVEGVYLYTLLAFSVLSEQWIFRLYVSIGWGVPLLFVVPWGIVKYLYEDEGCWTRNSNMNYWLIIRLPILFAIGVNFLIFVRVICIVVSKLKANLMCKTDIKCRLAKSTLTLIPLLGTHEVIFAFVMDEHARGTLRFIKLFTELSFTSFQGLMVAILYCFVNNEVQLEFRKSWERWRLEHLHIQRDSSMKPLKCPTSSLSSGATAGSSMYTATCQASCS

Row | Predicted Hepatic Clearance (Pred. Cl.) [1] | EC50 (GLP-1R; [2]) | Structure (SMILES) | EC50 (GLP-1R; read-out: EC50) | EC50 (GLP-1R; EC50 (nM))
1 | 10 mL/min/kg | 72.4 nM | COCCn1c(Cc2ccc(-c3cc(C(F)(F)F)cc(OCc4ccc(C#N)cc4F)n3)cc2F)nc2ccc(C(=O)O)cc21 [Example 90, 2-(4-(6-((4-cyano-2-fluorobenzyl)oxy)-4-(trifluoromethyl)pyridin-2-yl)-2-fluorobenzyl)-1-(2-methoxyethyl)-1H-benzo[d]imidazole-6-carboxylic acid] |  | 
2 | 5 mL/min/kg | 2630 nM | COCCn1c(Cc2ccc(-c3nc(OCc4ccc(C#N)cc4F)ccc3F)cc2F)nc2ccc(C(=O)O)cc21 [Example 91, 2-(4-(6-((4-cyano-2-fluorobenzyl)oxy)-3-fluoropyridin-2-yl)-2-fluorobenzyl)-1-(2-methoxyethyl)-1H-benzo[d]imidazole-6-carboxylic acid] |  | 
3 | 14.5 mL/min/kg | 0.28 nM | COc1cc(Cl)ccc1COc1nccc(-c2ccc(Cc3nc4ccc(C(=O)O)cc4n3CC3(CC#N)CC3)cc2F)n1 [Example 93, 2-(4-(2-((4-chloro-2-methoxybenzyl)oxy)pyrimidin-4-yl)-3-fluorobenzyl)-1-((1-(cyanomethyl)cyclopropyl)methyl)-1H-benzo[d]imidazole-6-carboxylic acid] |  | 
4 | 6.7 mL/min/kg | 0.26 nM | N#CCC1(Cn2c(Cc3ccc(-c4ccc(F)c(OCc5ccc(C#N)cc5F)n4)c(F)c3)nc3ccc(C(=O)O)cc32)CC1 [Example 95, 2-(4-(6-((4-cyano-2-fluorobenzyl)oxy)-5-fluoropyridin-2-yl)-3-fluorobenzyl)-1-((1-(cyanomethyl)cyclopropyl)methyl)-1H-benzo[d]imidazole-6-carboxylic] |  | 
5 | 17.8 mL/min/kg | 30.9 nM | COCCn1c(Cc2ccc(-c3cccc(OCc4ccncc4OC)n3)c(F)c2)nc2ccc(C(=O)O)cc21 [Example 96, 2-(3-fluoro-4-(6-((3-methoxypyridin-4-yl)methoxy)pyridin-2-yl)benzyl)-1-(2-methoxyethyl)-1H-benzo[d]imidazole-6-carboxylic acid] |  | 
6 | 3.5 mL/min/kg | 2780 nM | COCCn1c(Cc2ccc(-c3cc(C(=O)O)cc(OCc4ccc(C#N)cc4F)n3)cc2F)nc2ccc(C(=O)O)cc21 [Example 97, 2-(4-(4-carboxy-6-((4-cyano-2-fluorobenzyl)oxy)pyridin-2-yl)-2-fluorobenzyl)-1-(2-methoxyethyl)-1H-benzo[d]imidazole-6-carboxylic acid] |  | 
7 | 7.33 mL/min/kg | 913 nM | COCCn1c(Cc2ccc(-c3cccc(Oc4cccc5ccccc45)n3)cc2F)nc2ccc(C(=O)O)cc21 [Example 98, 2-(2-fluoro-4-(6-(naphthalen-1-yloxy)pyridin-2-yl)benzyl)-1-(2-methoxyethyl)-1H-benzo[d]imidazole-6-carboxylic acid] |  | 
8 | 6.7 mL/min/kg | 25.9 nM | COCCn1c(Cc2ccc(-c3cccc(OCc4ccc(C#N)cc4F)n3)c(Cl)c2)nc2ccc(C(=O)O)cc21 [Example 101, 2-(3-chloro-4-(6-((4-cyano-2-fluorobenzyl)oxy)pyridin-2-yl)benzyl)-1-(2-methoxyethyl)-1H-benzo[d]imidazole-6-carboxylic acid] |  | 
9 | 5.17 mL/min/kg | 56.5 nM | COCCn1c(Cc2cnc(-c3cccc(OCc4ccc(C#N)cc4F)n3)cn2)nc2ccc(C(=O)O)cc21 [Example 102, 2-((5-(6-((4-cyano-2-fluorobenzyl)oxy)pyridin-2-yl)pyrazin-2-yl)methyl)-1-(2-methoxyethyl)-1H-benzo[d]imidazole-6-carboxylic acid] |  | 
10 | 5.17 mL/min/kg | 4980 nM | COCCn1c(Cc2c(F)cc(-c3ccnnc3OCc3ccc(C#N)cc3F)cc2F)nc2ccc(C(=O)O)cc21 [Example 103, 2-[[4-[3-[(4-cyano-2-fluoro-phenyl)methoxy]pyridazin-4-yl]-2,6-difluoro-phenyl]methyl]-3-(2-methoxyethyl)benzimidazole-5-carboxylic acid] |  | 
11 | 12.7 mL/min/kg | 21.4 nM | COCCn1c(Cc2cc(F)c(-c3cccc(OCc4ccc(C#N)cc4F)n3)cc2F)nc2ccc(-c3nn[nH]n3)cc21 [Example 104, 4-[[6-[2,5-difluoro-4-[[1-(2-methoxyethyl)-6-(2H-tetrazol-5-yl)benzimidazol-2-yl]methyl]phenyl]-2-pyridyl]oxymethyl]-3-fluoro-benzonitrile] |  | 
12 | 6.33 mL/min/kg | 0.45 nM | C[C@@]1(Cn2c(Cc3ccc(-c4cccc(OCc5ccc(C#N)cc5F)n4)cc3F)nc3ccc(C(=O)O)cc32)CCO1 [Example 105, (S)-2-(4-(6-((4-cyano-2-fluorobenzyl)oxy)pyridin-2-yl)-2-fluorobenzyl)-1-((2-methyloxetan-2-yl)methyl)-1H-benzo[d]imidazole-6-carboxylic acid] |  | 
13 | <1.83 mL/min/kg | 1.5 nM | N#Cc1ccc(COc2nccc(-c3cc(F)c(Cc4nc5ccc(C(=O)O)nc5n4CC4(CF)CC4)cc3F)n2)c(F)c1 [Example 106, 2-(4-(2-((4-cyano-2-fluorobenzyl)oxy)pyrimidin-4-yl)-2,5-difluorobenzyl)-3-((1-(fluoromethyl)cyclopropyl)methyl)-3H-imidazo[4,5-b]pyridine-5-carboxylic acid] |  | 
14 | 13.8 mL/min/kg | 3640 nM | COCCn1c(Cc2cnn(-c3cccc(OCc4ccc(C#N)cc4F)n3)c2)nc2ccc(C(=O)O)cc21 [Example 107, 2-[[1-[6-[(4-cyano-2-fluoro-phenyl)methoxy]-2-pyridyl]pyrazol-4-yl]methyl]-3-(2-methoxyethyl)benzimidazole-5-carboxylic acid] |  | 
15 | 4.33 mL/min/kg | 388 nM | COCCn1c(Cc2ccc(-c3cccnc3OCc3ccc(C#N)cc3F)c(F)c2)nc2ccc(C(=O)O)cc21 [Example 108, 2-(4-(2-((4-cyano-2-fluorobenzyl)oxy)pyridin-3-yl)-3-fluorobenzyl)-1-(2-methoxyethyl)-1H-benzo[d]imidazole-6-carboxylic acid] |  | 
16 | 12.3 mL/min/kg | 3.38 nM | COCCn1c(Cc2ccc(-c3ccnc(OCc4ccc(C#N)cc4OC)n3)c(F)c2)nc2ccc(C(=O)O)cc21 [Example 109, 2-(4-(2-((4-cyano-2-methoxybenzyl)oxy)pyrimidin-4-yl)-3-fluorobenzyl)-1-(2-methoxyethyl)-1H-benzo[d]imidazole-6-carboxylic acid] |  | 
17 | 9.17 mL/min/kg | 3.76 nM | COCCn1c(Cc2ccc(-c3ccnc(OCc4ccc(C#N)cc4OC)n3)cc2F)nc2ccc(C(=O)O)cc21 [Example 112, 2-(4-(2-((4-cyano-2-methoxybenzyl)oxy)pyrimidin-4-yl)-2-fluorobenzyl)-1-(2-methoxyethyl)-1H-benzo[d]imidazole-6-carboxylic acid] |  | 
18 | 9.83 mL/min/kg | 2150 nM | COCCn1c(Cc2ccc(-c3cccc(NC(=O)c4ccc(C#N)cc4F)n3)cc2F)nc2ccc(C(=O)O)cc21 [Example 113, 2-(4-(6-(4-cyano-2-fluorobenzamido)pyridin-2-yl)-2-fluorobenzyl)-1-(2-methoxyethyl)-1H-benzo[d]imidazole-6-carboxylic acid] |  | 
19 | 5.92 mL/min/kg | 932 nM | COCCn1c(Cc2ccc(-c3nc(OCc4ccc(C#N)cc4F)ccc3F)c(F)c2)nc2ccc(C(=O)O)cc21 [Example 114, 2-[[4-[6-[(4-cyano-2-fluoro-phenyl)methoxy]-3-fluoro-2-pyridyl]-3-fluoro-phenyl]methyl]-3-(2-methoxyethyl)benzimidazole-5-carboxylic acid] |  | 
20 | 8.3 mL/min/kg | 80.9 nM | COCCn1c(Cc2ccc(-c3nc(OCc4ccc(C#N)cc4F)ccc3Cl)cc2F)nc2ccc(C(=O)O)cc21 [Example 115, 2-[[4-[3-chloro-6-[(4-cyano-2-fluoro-phenyl)methoxy]-2-pyridyl]-2-fluoro-phenyl]methyl]-3-(2-methoxyethyl)benzimidazole-5-carboxylic acid] |  | 
21 | 7.33 mL/min/kg | 2520 nM | COCCn1c(Cc2ccc(-c3cccc(NC(=O)c4ccccc4)n3)cc2F)nc2ccc(C(=O)O)cc21 [Example 116, 2-(4-(6-benzamidopyridin-2-yl)-2-fluorobenzyl)-1-(2-methoxyethyl)-1H-benzo[d]imidazole-6-carboxylic acid] |  | 
22 | <1.83 mL/min/kg | 62.2 nM | CC1(Cn2c(Cc3ccc(-c4cccc(OCc5ccc(C#N)cc5F)n4)cc3C#N)nc3ccc(C(=O)O)cc32)CC1 [Example 117, 2-(2-cyano-4-(6-((4-cyano-2-fluorobenzyl)oxy)pyridin-2-yl)benzyl)-1-((1-methylcyclopropyl)methyl)-1H-benzo[d]imidazole-6-carboxylic acid] |  | 

Row | Structure (SMILES) | Predicted Hepatic Clearance (Pred. Cl.) [1] | EC50 (GLP-1R; [2]) | EC50 (GLP-1R; read-out: EC50) | EC50 (GLP-1R; EC50 (nM))
23 | N#Cc1ccc(COc2cccc(-c3ccc(Cc4nc5ncc(C(=O)O)cc5n4CC4(CF)CC4)c(F)c3)n2)c(F)c1 [Example 92, 2-(4-(6-((4-cyano-2-fluorobenzyl)oxy)pyridin-2-yl)-2-fluorobenzyl)-1-((1-(fluoromethyl)cyclopropyl)methyl)-1H-imidazo[4,5-b]pyridine-6-carboxylic acid] | 3.17 mL/min/kg |  | 2.64 nM | 
24 | N#Cc1ccc(COc2cccc(-c3ccc(Cc4nc5ncc(C(=O)O)cc5n4CC4(CF)CC4)c(F)c3)n2)c(F)c1 [Example 94, 2-(4-(6-((4-cyano-2-fluorobenzyl)oxy)pyridin-2-yl)-2-fluorobenzyl)-1-((1-(fluoromethyl)cyclopropyl)methyl)-1H-imidazo[4,5-b]pyridine-6-carboxylic acid] | <1.83 mL/min/kg | 0.66 nM |  | 
25 | COCCn1c(Cc2cc(F)c(-c3cccc(OCc4ccc(C#N)cc4F)n3)c(F)c2)nc2ccc(C(=O)O)cc21 [Example 110, 2-(4-(6-((4-cyano-2-fluorobenzyl)oxy)pyridin-2-yl)-3,5-difluorobenzyl)-1-(2-methoxyethyl)-1H-benzo[d]imidazole-6-carboxylic acid] | 7 mL/min/kg |  |  | 21.8 nM
